Data published in ChEMBL document CHEMBL1127727, “Synthesis and structure-activity relationships of novel retinoid X receptor-selective retinoids” (J Med Chem, 1994).
pEC50, pKd: −log10 of the molar value.

Tests used:
[1] = target: T1, Retinoic acid receptor beta (Homo sapiens, UniProt P10826); test: Effective concentration against retinoid receptor isoform (RAR beta) expressed in CV-1 cells; format: cell-based
T1 sequence (P10826 whole entry): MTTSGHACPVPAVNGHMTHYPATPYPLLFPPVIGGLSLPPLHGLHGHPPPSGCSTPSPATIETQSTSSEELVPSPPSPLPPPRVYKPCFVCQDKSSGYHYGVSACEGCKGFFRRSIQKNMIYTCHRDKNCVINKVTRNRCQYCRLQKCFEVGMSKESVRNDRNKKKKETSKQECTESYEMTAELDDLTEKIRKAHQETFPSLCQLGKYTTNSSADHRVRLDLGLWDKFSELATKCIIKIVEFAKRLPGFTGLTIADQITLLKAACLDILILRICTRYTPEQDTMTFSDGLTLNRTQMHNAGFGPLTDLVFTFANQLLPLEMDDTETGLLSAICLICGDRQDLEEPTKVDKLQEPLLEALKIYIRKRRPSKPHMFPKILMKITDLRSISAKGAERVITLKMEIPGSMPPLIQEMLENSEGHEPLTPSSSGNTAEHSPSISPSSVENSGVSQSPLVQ

[2] = target: T2, Retinoic acid receptor alpha (Homo sapiens, UniProt P10276); test: Effective concentration against retinoid receptor isoform (RAR alpha) expressed in CV-1 cells; format: cell-based
T2 sequence (P10276 whole entry): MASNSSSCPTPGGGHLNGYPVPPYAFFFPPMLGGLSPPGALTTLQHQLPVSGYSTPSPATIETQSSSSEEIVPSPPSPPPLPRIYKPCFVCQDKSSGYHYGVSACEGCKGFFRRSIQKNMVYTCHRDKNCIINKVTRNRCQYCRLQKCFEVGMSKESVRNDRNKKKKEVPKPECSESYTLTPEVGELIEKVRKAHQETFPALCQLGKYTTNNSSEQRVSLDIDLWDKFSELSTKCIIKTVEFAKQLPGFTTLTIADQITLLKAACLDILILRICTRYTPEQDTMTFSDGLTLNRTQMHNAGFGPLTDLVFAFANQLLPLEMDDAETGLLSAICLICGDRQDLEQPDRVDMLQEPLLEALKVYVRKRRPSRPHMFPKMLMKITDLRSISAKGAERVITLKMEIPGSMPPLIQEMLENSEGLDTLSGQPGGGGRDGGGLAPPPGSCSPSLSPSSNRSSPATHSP

[3] = target: T3, Retinoic acid receptor RXR-alpha (Homo sapiens, UniProt P19793)
T3 sequence (P19793 whole entry): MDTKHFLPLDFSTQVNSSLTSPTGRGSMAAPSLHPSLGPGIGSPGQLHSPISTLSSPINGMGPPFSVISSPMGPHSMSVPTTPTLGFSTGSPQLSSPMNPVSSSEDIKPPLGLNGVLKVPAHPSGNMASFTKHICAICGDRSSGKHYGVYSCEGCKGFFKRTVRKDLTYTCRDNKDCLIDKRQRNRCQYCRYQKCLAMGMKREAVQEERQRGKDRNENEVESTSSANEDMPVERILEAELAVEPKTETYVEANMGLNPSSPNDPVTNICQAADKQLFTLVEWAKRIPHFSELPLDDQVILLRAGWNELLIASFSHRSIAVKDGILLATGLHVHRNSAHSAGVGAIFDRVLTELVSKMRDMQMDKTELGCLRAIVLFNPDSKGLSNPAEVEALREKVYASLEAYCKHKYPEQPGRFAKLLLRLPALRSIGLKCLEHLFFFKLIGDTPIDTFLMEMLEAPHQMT
Description: Effective concentration against retinoid receptor isoform (RXR alpha) expressed in CV-1 cells

[4] = target: T1, Retinoic acid receptor beta; test: Inhibition of [3H]ATRA binding to baculovirus expressed retinoid receptor RAR beta
[5] = target: T4, Retinoic acid receptor RXR-gamma (Mus musculus, UniProt P28705); test: Effective concentration against retinoid receptor isoform (RXR gamma) expressed in CV-1 cells; format: cell-based
T4 sequence (P28705 whole entry): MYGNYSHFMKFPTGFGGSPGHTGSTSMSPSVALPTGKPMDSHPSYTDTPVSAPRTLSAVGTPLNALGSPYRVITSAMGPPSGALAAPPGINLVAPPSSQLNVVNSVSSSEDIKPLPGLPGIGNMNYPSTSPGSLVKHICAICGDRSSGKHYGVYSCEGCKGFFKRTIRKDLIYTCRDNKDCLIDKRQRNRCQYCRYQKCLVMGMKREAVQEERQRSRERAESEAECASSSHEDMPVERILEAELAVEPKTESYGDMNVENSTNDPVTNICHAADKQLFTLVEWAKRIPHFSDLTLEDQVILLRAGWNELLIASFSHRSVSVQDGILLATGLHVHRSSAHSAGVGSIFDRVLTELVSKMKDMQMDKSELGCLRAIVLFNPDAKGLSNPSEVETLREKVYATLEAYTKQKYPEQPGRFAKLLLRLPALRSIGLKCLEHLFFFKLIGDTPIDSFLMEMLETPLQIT

[6] = target: T5, Retinoic acid receptor gamma (Homo sapiens, UniProt P13631); test: Tested for binding affinity against [3H]-ATRA binding to retinoid receptor isoform (RAR gamma) expressed in baculovirus
T5 sequence (P13631 whole entry): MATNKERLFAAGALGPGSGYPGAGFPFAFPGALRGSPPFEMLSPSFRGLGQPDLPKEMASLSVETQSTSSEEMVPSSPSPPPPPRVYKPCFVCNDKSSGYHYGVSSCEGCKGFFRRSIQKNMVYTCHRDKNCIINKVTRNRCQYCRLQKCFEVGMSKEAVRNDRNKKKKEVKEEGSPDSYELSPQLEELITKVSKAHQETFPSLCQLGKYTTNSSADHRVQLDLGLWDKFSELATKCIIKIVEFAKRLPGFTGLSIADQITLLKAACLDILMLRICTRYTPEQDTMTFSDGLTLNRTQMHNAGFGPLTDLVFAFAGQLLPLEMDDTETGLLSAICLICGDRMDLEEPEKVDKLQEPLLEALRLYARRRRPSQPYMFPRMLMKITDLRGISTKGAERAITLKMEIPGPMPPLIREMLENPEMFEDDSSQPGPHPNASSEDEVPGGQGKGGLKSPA

[7] = target: T6, Retinoic acid receptor RXR-beta (Mus musculus, UniProt P28704); test: Effective concentration against retinoid receptor isoform (RXR beta) expressed in CV-1 cells; format: cell-based
T6 sequence (P28704 whole entry): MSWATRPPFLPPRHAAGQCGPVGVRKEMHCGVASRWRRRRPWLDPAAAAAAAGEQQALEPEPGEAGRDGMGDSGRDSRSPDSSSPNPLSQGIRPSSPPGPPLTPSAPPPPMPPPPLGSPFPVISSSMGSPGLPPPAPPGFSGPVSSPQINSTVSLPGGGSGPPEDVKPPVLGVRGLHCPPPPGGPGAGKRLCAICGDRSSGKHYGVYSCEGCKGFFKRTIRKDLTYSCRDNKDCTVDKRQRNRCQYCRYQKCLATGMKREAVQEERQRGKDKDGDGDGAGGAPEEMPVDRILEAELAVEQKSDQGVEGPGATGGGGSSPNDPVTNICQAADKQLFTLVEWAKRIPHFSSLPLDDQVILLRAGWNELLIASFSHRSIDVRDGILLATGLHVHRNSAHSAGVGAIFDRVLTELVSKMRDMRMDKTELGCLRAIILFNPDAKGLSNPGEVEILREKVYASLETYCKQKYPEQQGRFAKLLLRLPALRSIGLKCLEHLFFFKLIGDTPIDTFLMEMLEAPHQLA

[8] = target: T4, Retinoic acid receptor RXR-gamma; test: Inhibition of [3H]9-cis-RA binding to baculovirus expressed retinoid receptor RXR gamma
[9] = target: T5, Retinoic acid receptor gamma; test: Effective concentration against retinoid receptor isoform (RAR gamma) expressed in CV-1 cells; format: cell-based
[10] = target: T3, Retinoic acid receptor RXR-alpha; remark: listed apart in the source
Description: Inhibition of [3H]9-cis-RA binding to baculovirus expressed retinoid receptor RXR alpha

[11] = target: T6, Retinoic acid receptor RXR-beta; test: Inhibition of [3H]9-cis-RA binding to baculovirus expressed retinoid receptor RXR beta
[12] = target: T2, Retinoic acid receptor alpha; test: Inhibition of [3H]-ATRA binding to baculovirus expressed retinoid receptor RAR alpha

pEC50 [1] | pEC50 [2] | pEC50 [3] | pKd [4] | pEC50 [5] | pKd [6] | pEC50 [7] | pKd [8] | pEC50 [9] | pKd [10] | pKd [11] | pKd [12] | Compound
< 5.00 | < 5.00 | 6.94 | < 6.00 | 6.87 | < 6.00 | 6.84 | 7.23 | < 5.00 | 7.51 | 7.36 | < 6.00 | C=C(c1ccc(C(=O)O)cc1)c1cc2c(cc1CC)C(C)(C)CCC2(C)C
6.36 | < 5.00 | 7.28 | < 6.00 | 7.44 | < 6.00 | 7.48 | 7.36 | 5.84 | 7.57 | 7.36 | < 6.00 | C=C(c1ccc(C(=O)O)cc1)c1cc2c(cc1Cl)C(C)(C)CCC2(C)C
< 5.00 | < 5.00 | 6.42 | < 6.00 | 6.45 | < 6.00 | 6.50 | 6.51 | < 5.00 | 6.95 | 6.81 | < 6.00 | CC(C)c1cc2c(cc1C(=O)c1ccc(C(=O)O)cc1)C(C)(C)CCC2(C)C
< 5.00 | < 5.00 | 6.48 | < 6.00 | 6.58 | < 6.00 | 6.92 | 6.82 | < 5.00 | 6.98 | 6.82 | < 6.00 | CC1(C)CCC(C)(C)c2cc(C(=O)c3ccc(C(=O)O)cc3)c(Br)cc21
< 5.00 | < 5.00 | 6.53 | < 6.00 | 6.65 | < 6.00 | 6.58 | 6.87 | < 5.00 | 6.89 | 6.96 | < 6.00 | CC1(C)CCC(C)(C)c2cc(C(=O)c3ccc(C(=O)O)cc3)c(Cl)cc21
< 5.00 | < 5.00 | 5.69 | < 6.00 | 5.66 | < 6.00 | 5.66 | < 6.00 | < 5.00 | < 6.00 | < 6.00 | < 6.00 | COc1cc2c(cc1C(=O)c1ccc(C(=O)O)cc1)C(C)(C)CCC2(C)C
< 5.00 | < 5.00 | 6.29 | < 6.00 | 6.42 | < 6.00 | 6.09 | 6.37 | < 5.00 | 6.71 | 6.63 | < 6.00 | CCc1cc2c(cc1C(=O)c1ccc(C(=O)O)cc1)C(C)(C)CCC2(C)C

Continued, molecule first:

Compound | pEC50 [1] | pEC50 [2] | pEC50 [3] | pKd [4] | pEC50 [5] | pKd [6] | pEC50 [7] | pKd [8] | pEC50 [9] | pKd [10] | pKd [11] | pKd [12]
CC1(C)CCC(C)(C)c2cc(C(=O)c3ccc(C(=O)O)cc3)c(O)cc21 | < 5.00 | < 5.00 | < 5.00 | < 6.00 | < 5.00 | < 6.00 | < 5.00 | < 6.00 | < 5.00 | 6.09 | < 6.00 | < 6.00
C=C(c1ccc(C(=O)O)cc1)c1cc2c(cc1CCC)C(C)(C)CCC2(C)C | < 5.00 | < 5.00 | < 5.00 | < 6.00 | < 5.00 | < 6.00 | < 5.00 | 6.48 | < 5.00 | 6.86 | 6.63 | < 6.00
C=C(c1ccc(C(=O)O)cc1)c1cc2c(cc1O)C(C)(C)CCC2(C)C | 5.65 | < 5.00 | 6.34 | < 6.00 | 6.25 | < 6.00 | 6.69 | 6.09 | < 5.00 | 6.31 | 6.09 | < 6.00
CC1(C)CCC(C)(C)c2cc(C(=O)c3ccc(C(=O)O)cc3)c(F)cc21 | 6.40 | 5.54 | 5.74 | < 6.00 | 5.65 | < 6.00 | 5.70 | 6.04 | 5.99 | 6.15 | 6.04 | < 6.00
C=C(c1ccc(C(=O)O)cc1)c1ccc2c(c1)C(C)(C)CCC2(C)C | 6.52 | < 5.00 | 6.39 | 6.04 | 6.39 | 6.05 | 6.31 | 6.54 | 6.58 | 6.82 | 6.70 | 6.03
CCCc1cc2c(cc1C(=O)c1ccc(C(=O)O)cc1)C(C)(C)CCC2(C)C | < 5.00 | < 5.00 | < 5.00 | < 6.00 | < 5.00 | < 6.00 | < 5.00 | 6.15 | < 5.00 | 6.57 | 6.43 | < 6.00
C=C(c1ccc(C(=O)O)cc1)c1cc2c(cc1C(C)C)C(C)(C)CCC2(C)C | < 5.00 | < 5.00 | 6.68 | < 6.00 | 6.64 | < 6.00 | 6.54 | 6.85 | < 5.00 | 7.26 | 7.12 | < 6.00
